# Assay results published in ChEMBL document CHEMBL1201862, “PubChem BioAssay data set” (2004).
# “And” between values parts separate entries of the source, which are not always exact repeats. Identical values can stand only once.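 Step 1: Grow cells in 96-well plates. Step 2: Expose to compound for 48 hours at 5 concentrations. Step 3: Interpolate endpoints linearly; if unreached, use highest concentration. At the GI50, growth is halved.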 The source made the active and inactive calls. Cut-off read from the data, not from the text of the source: active = GI50 up to about 1.1 µM and inactive = higher.
# Experiments:
# Experiment in all cases: inhibition of tumour cell growth, NCI panel, 48 h
# SR = tested on: SR
# NCI-H460 = tested on: NCI-H460
# NCI-H226 = tested on: NCI-H226
# TK-10 = tested on: TK-10
# DU-145 = tested on: DU-145
# U-251 = tested on: U-251
# MCF7 = tested on: MCF7
# CCRF-CEM = tested on: CCRF-CEM
# SK-MEL-5 = tested on: SK-MEL-5
# SF-268 = tested on: SF-268
# NCI-H522 = tested on: NCI-H522
# NCI/ADR-RES = tested on: NCI/ADR-RES
# HCC 2998 = tested on: HCC 2998
# UO-31 = tested on: UO-31
# A498 = tested on: A498
# OVCAR-3 = tested on: OVCAR-3
# UACC-257 = tested on: UACC-257
# T47D = tested on: T47D
# HT-29 = tested on: HT-29
# Hs-578T = tested on: Hs-578T
# MOLT-4 = tested on: MOLT-4
# K562 = tested on: K562
# ACHN = tested on: ACHN
# RPMI-8226 = tested on: RPMI-8226
# MDA-N = tested on: MDA-N
# 786-0 = tested on: 786-0
# SF-539 = tested on: SF-539
# OVCAR-8 = tested on: OVCAR-8
# OVCAR-4 = tested on: OVCAR-4
# HCT-116 = tested on: HCT-116
# Malme-3M = tested on: Malme-3M
# SK-MEL-2 = tested on: SK-MEL-2
# UACC-62 = tested on: UACC-62
# SNB-75 = tested on: SNB-75
# BT-549 = tested on: BT-549
# RXF 393 = tested on: RXF 393
# HL-60 = tested on: HL-60
# M14 = tested on: M14
# COLO 205 = tested on: COLO 205
# OVCAR-5 = tested on: OVCAR-5
# SK-OV-3 = tested on: SK-OV-3
# MDA-MB-435 = tested on: MDA-MB-435
# A549 = tested on: A549
# HOP-62 = tested on: HOP-62
# SN12C = tested on: SN12C
# IGROV-1 = tested on: IGROV-1
# PC-3 = tested on: PC-3
# SF-295 = tested on: SF-295
# NCI-H23 = tested on: NCI-H23
# EKVX = tested on: EKVX
# SK-MEL-28 = tested on: SK-MEL-28
# KM12 = tested on: KM12
# MDA-MB-231 = tested on: MDA-MB-231
# CAKI-1 = tested on: CAKI-1
# HOP-92 = tested on: HOP-92
# HCT-15 = tested on: HCT-15
# SW-620 = tested on: SW-620
# SNB-19 = tested on: SNB-19
# LOX IMVI = tested on: LOX IMVI
smiles,measurement,setting,value
COc1nc(N)c(/N=C/C(OC(C)=O)C(OC(C)=O)C(COC(C)=O)OC(C)=O)c(=O)n1C (stereo not drawn),GI50,SR,> 100 µM (inactive)
same,GI50,NCI-H460,> 100 µM (inactive)
same,GI50,NCI-H226,> 100 µM (inactive)
same,GI50,TK-10,> 100 µM (inactive)
same,GI50,DU-145,> 100 µM (inactive)
same,GI50,U-251,> 100 µM (inactive)
same,GI50,MCF7,> 100 µM (inactive)
same,GI50,CCRF-CEM,> 100 µM (inactive) and 62.2 µM (inactive)
same,GI50,SK-MEL-5,> 100 µM (inactive)
same,GI50,SF-268,> 100 µM (inactive)
same,GI50,NCI-H522,> 100 µM (inactive)
same,GI50,NCI/ADR-RES,> 100 µM (inactive)
same,GI50,HCC 2998,> 100 µM (inactive)
same,GI50,UO-31,> 100 µM (inactive)
same,GI50,A498,> 100 µM (inactive)
same,GI50,OVCAR-3,> 100 µM (inactive)
same,GI50,UACC-257,> 100 µM (inactive)
same,GI50,T47D,> 100 µM (inactive)
same,GI50,HT-29,> 100 µM (inactive)
same,GI50,Hs-578T,> 100 µM (inactive)
same,GI50,MOLT-4,> 100 µM (inactive)
same,GI50,K562,> 100 µM (inactive)
same,GI50,ACHN,> 100 µM (inactive)
same,GI50,RPMI-8226,> 100 µM (inactive)
same,GI50,MDA-N,> 100 µM (inactive)
same,GI50,786-0,> 100 µM (inactive)
same,GI50,SF-539,> 100 µM (inactive)
same,GI50,OVCAR-8,> 100 µM (inactive)
same,GI50,OVCAR-4,> 100 µM (inactive)
same,GI50,HCT-116,> 100 µM (inactive)
same,GI50,Malme-3M,> 100 µM (inactive)
same,GI50,SK-MEL-2,> 100 µM (inactive)
same,GI50,UACC-62,> 100 µM (inactive)
same,GI50,SNB-75,> 100 µM (inactive)
same,GI50,BT-549,> 100 µM (inactive)
same,GI50,RXF 393,> 100 µM (inactive)
same,GI50,HL-60,> 100 µM (inactive)
same,GI50,M14,> 100 µM (inactive)
same,GI50,COLO 205,> 100 µM (inactive)
same,GI50,OVCAR-5,> 100 µM (inactive)
same,GI50,SK-OV-3,> 100 µM (inactive)
same,GI50,MDA-MB-435,> 100 µM (inactive)
same,GI50,A549,> 100 µM (inactive)
same,GI50,HOP-62,> 100 µM (inactive)
same,GI50,SN12C,> 100 µM (inactive)
same,GI50,IGROV-1,> 100 µM (inactive)
same,GI50,PC-3,> 100 µM (inactive)
same,GI50,SF-295,> 100 µM (inactive)
same,GI50,NCI-H23,> 100 µM (inactive)
same,GI50,EKVX,> 100 µM (inactive)
same,GI50,SK-MEL-28,> 100 µM (inactive)
same,GI50,KM12,> 100 µM (inactive)
same,GI50,MDA-MB-231,> 100 µM (inactive)
same,GI50,CAKI-1,> 100 µM (inactive)
same,GI50,HOP-92,> 100 µM (inactive)
same,GI50,HCT-15,> 100 µM
same,GI50,SW-620,> 100 µM (inactive)
same,GI50,SNB-19,> 100 µM (inactive)
same,GI50,LOX IMVI,> 100 µM (inactive)
Cc1ccc(/C=C/C(=N/NC(=O)N/N=C(/C=C/c2ccc(C)cc2)C(C)(C)CN2CCCCC2)C(C)(C)CN2CCCCC2)cc1,GI50,SR,0.0787 µM (active)
same,GI50,NCI-H460,1.64 µM (inactive)
same,GI50,NCI-H226,1.82 µM (inactive)
same,GI50,TK-10,1.74 µM (inactive)
same,GI50,DU-145,3.48 µM (inactive)
same,GI50,U-251,1.48 µM (inactive)
same,GI50,MCF7,1.47 µM (inactive)
same,GI50,CCRF-CEM,1.3 µM (inactive)
same,GI50,SK-MEL-5,1.67 µM (inactive)
same,GI50,SF-268,1.81 µM (inactive)
same,GI50,NCI-H522,1.63 µM (inactive)
same,GI50,NCI/ADR-RES,1.64 µM (inactive)
same,GI50,HCC 2998,1.77 µM (inactive)
same,GI50,UO-31,0.813 µM (active)
same,GI50,A498,1.67 µM (inactive)
same,GI50,OVCAR-3,1.48 µM (inactive)
same,GI50,UACC-257,1.72 µM (inactive)
same,GI50,T47D,2.19 µM (inactive)
same,GI50,HT-29,0.757 µM (active)
same,GI50,Hs-578T,1.52 µM (inactive)
same,GI50,MOLT-4,0.125 µM (active)
same,GI50,K562,0.122 µM (active)
same,GI50,ACHN,2 µM (inactive)
same,GI50,RPMI-8226,0.258 µM (active)
same,GI50,MDA-N,1.52 µM (inactive)
same,GI50,786-0,1.39 µM (inactive)
same,GI50,SF-539,1.77 µM (inactive)
same,GI50,OVCAR-8,1.54 µM (inactive)
same,GI50,OVCAR-4,2.07 µM (inactive)
same,GI50,HCT-116,1.34 µM (inactive)
same,GI50,Malme-3M,1.67 µM (inactive)
same,GI50,SK-MEL-2,1.94 µM (inactive)
same,GI50,UACC-62,2.3 µM (inactive)
same,GI50,SNB-75,1.46 µM (inactive)
same,GI50,BT-549,2.1 µM (inactive)
same,GI50,RXF 393,1.28 µM (inactive)
same,GI50,HL-60,1.63 µM (inactive)
same,GI50,M14,0.614 µM (active)
same,GI50,COLO 205,1.53 µM (inactive)
same,GI50,OVCAR-5,2.16 µM (inactive)
same,GI50,SK-OV-3,1.77 µM (inactive)
same,GI50,MDA-MB-435,1.45 µM (inactive)
same,GI50,A549,1.52 µM (inactive)
same,GI50,HOP-62,1.65 µM (inactive)
same,GI50,SN12C,1.61 µM (inactive)
same,GI50,IGROV-1,1.98 µM (inactive)
same,GI50,PC-3,1.69 µM (inactive)
same,GI50,SF-295,1.71 µM (inactive)
same,GI50,NCI-H23,2.19 µM (inactive)
same,GI50,EKVX,2.67 µM (inactive)
same,GI50,SK-MEL-28,1.73 µM (inactive)
same,GI50,KM12,1.64 µM (inactive)
same,GI50,MDA-MB-231,1.79 µM (inactive)
same,GI50,CAKI-1,2.31 µM (inactive)
same,GI50,HOP-92,1.51 µM (inactive)
same,GI50,HCT-15,1.57 µM
same,GI50,SW-620,1.79 µM (inactive)
same,GI50,SNB-19,2.11 µM (inactive)
same,GI50,LOX IMVI,1.16 µM (inactive)
